{"source": "patent EP2349249B1", "about": "“SYNERGISTIC COMPOSITION FOR RECOVERY AND REDUCTION OF MILD ISCHEMIC DAMAGE” (Giellepi S.p.A., priority 2008, dated 2010)", "key": {"[1]": {"tested_on": "H9c2 cells", "test": "MTT cell viability assay in doxorubicin-treated cells", "format": "cell-based", "conditions": "H9c2 cells treated for 24 hours with 0.5 µM doxorubicin; for minimal effective concentration: Rattus norvegicus, MTT dose-response curve, read-out: minimum effective concentration required to improve viability (sufficient to induce protection)", "method": "Cells were seeded at a concentration of 1.8x10^3/well in 96-well plates and incubated at 37°C for 24 hours. Cells were then incubated for additional 24 hours after addition of water or doxorubicin (0.5 µM final concentration) in presence of different concentrations of Cr and/or Rib, as indicated in the figures. Cell viability was determined by the 2-(4,5-dimethyltriazol-2-yl)-2,5-diphenyl tetrazolium bromide assay (MTT, Sigma, St Louis, Mo). Briefly, after addition to each well of 20µl of the MTT solution in PBS at a concentration of 5 mg/ml, cells were incubated at 37°C for 4 hours. After removal of the supernatant, 100 µl of DMSO were added to dissolve the formazan salts produced and optical density (OD) was read at λ=540 nm. For each treatment, five replicates were performed. The viability index was calculated, for each treatment, as ODx/OD0, where ODx and OD0 are the average ODs at time x and at time zero.\nThe optimal working concentration was determined by a dose-response curve using the MTT assay (vital dye staining) in presence of Creatine and Ribose. To test the efficacy of creatine and ribose in maintaining cellular energy homeostasis, H9c2 cells were treated with doxorubicin, a well-known cardiotoxic agent that causes mitochondrial damage resulting in production of reactive oxygen species."}, "[2]": {"tested_on": "H9c2 cells", "test": "Cell cycle profile by flow cytometry (propidium iodide) in simulated ischemia", "format": "cell-based", "conditions": "ischemic H9c2 cells; 2.5 mM Creatine and/or 5 mM Ribose", "method": "The cell cycle profile was analyzed by flow cytometry after DNA staining with propidium iodide (PI, Sigma, St. Louis, Mo.). Cells were washed with PBS and fixed with 70% ethanol at -20°C, centrifuged (15 min at 1800 rpm), resuspended in 1 ml PBS containing 50 µg/ml PI and incubated for 1 hour at room temperature Cells were then analyzed by flow cytometry in a FACSorter (Becton Dickinson). The percentage of cells in different phases of the cell cycle was calculated using the CellQuest software program (Becton Dickinson)."}}, "data": [{"smiles": "COc1cccc2c1C(=O)c1c(O)c3c(c(O)c1C2=O)C[C@@](O)(C(=O)CO)C[C@@H]3O[C@H]1C[C@H](N)[C@H](O)[C@H](C)O1", "note": "[Doxo, doxorubicin, reference compound]", "values": [{"measurement": "decrease of viability compared to untreated cells", "setting": "[1]; MTT", "result": 35, "unit": "%"}]}, {"smiles": "CN(CC(=O)O)C(=N)N.O", "note": "[Creatine, Creatine monohydrate]", "values": [{"measurement": "minimal effective concentration", "setting": "[1]", "result": 2500, "unit": "µM"}, {"measurement": "change of the percentage of cells progressing from G1 to S phase", "setting": "[2]", "result": "did not change"}]}, {"smiles": "O=C[C@H](O)[C@H](O)[C@H](O)CO", "note": "[Ribose, D-ribose]", "values": [{"measurement": "minimal effective concentration", "setting": "[1]", "result": 5000, "unit": "µM"}, {"measurement": "change of the percentage of cells progressing from G1 to S phase", "setting": "[2]", "result": "did not change"}]}]}
